These results are taken from US20040022788A1, “Compositions and methods for promoting or inhibiting angiogenesis” (priority 1998, published 2004).

Assay [1] has as its target T1, purified bovine F1 ATP synthase (Bos taurus, UniProt P00829+P19483).
T1 construct: from tissue; host or cells: bovine heart mitochondria
The experiment in a line: ELISA binding of angiostatin to purified F1 ATP synthase. The conditions noted are these: double-reciprocal plots; 1 μg F1 ATP synthase per well; read-out: apparent dissociation constant Kd(app). The procedure:
FIG. 11 is a bar graph showing the binding of angiostatin to purified bovine F1 ATP synthase. ELISA was used to determine concentration-dependent binding of angiostatin to a constant amount of F1 ATP synthase. Each well was coated with 1 μg of F1 ATP synthase prior to addition of […] amounts of angiostatin.
ELISA Binding Studies. Binding studies were performed with purified F1 subunit of bovine ATP synthase ([…]) passively adsorbed onto polyvinylchloride microtiter 96-well flat bottom plates (Dynex Technologies, Inc, Chantilly, Va.) as previously described (22). Briefly, plates were coated with protein in 50 μl of 0.1M Na2CO3, pH9.6 and incubated 2 h at 37° C. Non-specific sites were blocked by incubating with PBS, pH 7.0 containing 1% BSA for 30 min at rt. Binding studies were performed with increasing amounts of angiostatin (0-0.5 mg/ml) added in a […] for 1 h at 37° C. Plates were washed (0.1% Tween20/PBS, pH 7.0) and incubated with anti-human angiostatin antibody (goat IgG) (R&D Systems, Minneapolis, Minn.) (1:200 dil) overnight at 4° C. […] Plates were washed and 150 μl of OPD substrate was added to each well and the reaction stopped with 25 μl of H2SO4 (25%), before monitoring the absorbance at λ=492 nm in a Molecular Devices SpectraMax Plus-384 plate reader. […]
Background: In an ELISA, binding on a coated surface is turned into a signal by an enzyme label.

Assay [2] addresses T2, recombinant alpha subunit of human ATP synthase (Homo sapiens, UniProt P25705).
T2 construct: His tag; made in house; host or cells: E. coli BL21DE3
The experiment in a line: Ligand blot binding to the recombinant alpha subunit of ATP synthase. As to conditions: ligand blot. Here is the method: FIGS. 7A-7E. Angiostatin binding to the recombinant alpha subunit of human ATP synthase. The alpha subunit of human ATP synthase was cloned and expressed in E. coli and purified using Qiagen's nickel-Sepharose protein purification system before dialyzing in phosphate buffered saline (PBS), pH 7.0. Recombinant protein was electrophoresed on 5-15% SDS-PAGE, electroblotted onto Immobilon™ membrane and incubated 18 h in 10 mM Tris-HCl, 0.15M NaCl, 0.05% NP40, pH 7.5 (TSN) containing ^125I-angiostatin. For competition studies, unlabeled ligand was added 4 h prior to radiolabeled ligand. Blots were washed in TSN buffer containing 0.05% Tween80 and bound radioactivity was quantified on a Molecular Dynamics PhosphorImager™.
Purification of the alpha-Subunit of ATP Synthase. Competent E. coli BL21DE3 were transformed with the pET24a(+) vector containing the alpha subunit, plated on 2× Bacto-yeast tryptone (YT) agarose, and grown overnight at 37° C. Twenty milliliters of 2× YT containing […] kanamycin was inoculated with one colony and grown overnight at 37° C. (200 rpm). A 1-liter culture (2× YT, […] kanamycin) was inoculated with 20 ml of the noninduced overnight culture and grown at 37° C. to an OD of 0.6 at a wavelength of 600 nm. Isopropyl […] was added to a final concentration of 1 mM and grown for an additional 3 h. Cells were harvested by centrifugation at 8,000 rpm for 10 min and stored overnight at −20° C. Lysates were prepared under denaturing conditions and batch-purified by using Qiagen Ni-NTA agarose. Resulting protein was dialyzed against PBS, pH 7.0 for use in all experiments.

With angiostatin, in assay [1], the Kd was 12 nM. Besides, the “binding of 125I-labeled ligand to recombinant alpha subunit” value in assay [2] is “bound”.
